The values below come from patent publication US8921552B2, “Benzothiazole hybrids useful as anticancer agents and process for the preparation thereof” (Council of Scientific & Industrial Research, priority 2011, dated 2014).

One may read the inhibition as the drop in the measured response relative to a control, in per cent.

Molecules are shown by their SMILES.

One data set relates to human tumor cell lines. In words: In vitro anticancer activity, panel of seven human tumor cell lines (SRB assay). Type of data set: cell-based. The settings on record: for inhibition at 10 µM: Homo sapiens, range over the cell lines, exposure period of at least 48 hrs, read-out: percentage growth inhibition for invitro anticancer activity; for cytotoxic activity in words: various human tumour cell lines. On the procedure: (§1) The benzothiazole hybrids has been tested against seven human tumor cell lines derived from six cancer types (lung cancer, colon cancer, CNS cancer, ovarian cancer, prostate cancer and breast cancer). For these compounds results are expressed as percent of cell growth inhibition relative to that of untreated control cells. A protocol of 48 h continuous drug exposure has been used, and a sulforhodamine B (SRB) protein assay was used to estimate cell viability or growth.
(§2) The compounds 9b, 9h, 9m, 9r, 15c, 15h, 15m, 15r, 10b, 10h, 10m, 10r, 16c, 16h and 16m were evaluated for in vitro anticancer activity against seven human tumor cells derived from six cancer types (lung cancer, colon cancer, CNS cancer, ovarian cancer, prostate cancer and breast cancer) at concentration of 10 μM and the results are shown in Table 1.

Another data set concerns IGR-OV-1. The experiment in a line: In vitro cytotoxicity, SRB assay, ovarian cancer cell line IGR-OV-1. Type of data set: cell-based, human. The settings on record: Homo sapiens, IGROV-1; IGR-OV-1 (ovarian), 10 μM, 48 h exposure; read-out: % of growth inhibition. The source says:
(§3) The benzothiazole hybrids has been tested against seven human tumor cell lines derived from six cancer types (lung cancer, colon cancer, CNS cancer, ovarian cancer, prostate cancer and breast cancer). For these compounds results are expressed as percent of cell growth inhibition relative to that of untreated control cells.
(In general: In SRB staining, fixed cells bind dye roughly in proportion to their protein.)

For the next data set, the system named is PC-3. The experiment in a line: In vitro cytotoxicity, SRB assay, prostate cancer cell line PC-3. Type of data set: cell-based, human. The following applies: Homo sapiens; PC-3 (prostate), 10 μM, 48 h exposure; read-out: % of growth inhibition.
Description: as §3

Another data set deals with A-549. The experiment in a line: In vitro cytotoxicity, SRB assay, lung cancer cell line A-549. The data set is classed as cell-based, human. The following applies: Homo sapiens, A549; A-549 (lung), 10 μM, 48 h exposure; read-out: % of growth inhibition.
Description: as §3

The test system of another data set is MCF7. In words: In vitro cytotoxicity, SRB assay, breast cancer cell line MCF7. The data set is classed as cell-based, human. The settings on record: Homo sapiens, 10 μM, 48 h exposure, read-out: % of growth inhibition.
Description: as §3

The next data set has as its system SW-620. The experiment in a line: In vitro cytotoxicity, SRB assay, colon cancer cell line SW-620. The settings on record: Homo sapiens, SW-620 (colon), 48 h exposure, read-out: % of growth inhibition. The data set is classed as cell-based. On the procedure:
as §1, §2

Another data set has as its system SF-295. In words: In vitro cytotoxicity, SRB assay, CNS cancer cell line SF-295. The following applies: Homo sapiens; SF-295 (CNS), 10 μM, 48 h exposure; read-out: % of growth inhibition. The data set is classed as cell-based, human.
Description: as §3

As to `COc1ccc(/C=C\c2cc(OC)c(OC)c(OC)c2)cc1OCCCCOc1cccc(-c2nc3ccccc3s2)c1` [Compound 9r, 2-[3-(4-{2-methoxy-5-[(Z)-2-(3,4,5-trimethoxyphenyl)-1-ethenyl]phenoxy}butoxy)phenyl]-1,3-benzothiazole], the inhibition at 10 µM in the data set with human tumor cell lines is 1 to 100%; in the data set on IGR-OV-1, 48%; in the data set on PC-3 it was 59%; in the data set with A-549, 59%; in the data set with MCF7, 52%; in the data set on SW-620, 22%. Moreover, the inhibition at 10 µM with SF-295 came out at 71%.

Take `COc1cc(-c2nc3ccccc3s2)ccc1OCCCOc1cc(/C=C/C(=O)c2cc(OC)c(OC)c(OC)c2)ccc1OC` [Compound 10b, (E)-3-(3-{3-[4-(1,3-benzothiazol-2-yl)-2-methoxyphenoxy]propoxy}-4-methoxyphenyl)-1-(3,4,5-trimethoxyphenyl)-2-propen-1-one]: the inhibition at 10 µM in the data set on human tumor cell lines is 1 to 100%; in the data set on IGR-OV-1, 21%; in the data set on PC-3 it was 5%; in the data set on A-549 it was 66%; in the data set with MCF7, 19%; in the data set on SW-620, 0%. Moreover, the inhibition at 10 µM in the data set with SF-295 was 51%.

`COc1ccc(/C=C/C(=O)c2cc(OC)c(OC)c(OC)c2)cc1OCCCCOc1ccc(-c2nc3ccccc3s2)cc1` [Compound 10h, (E)-3-(3-{4-[4-(1,3-benzothiazol-2-yl)phenoxy]butoxy}-4-methoxyphenyl)-1-(3,4,5-trimethoxyphenyl)-2-propen-1-one]: the inhibition at 10 µM with human tumor cell lines is 1 to 100%; in the data set with IGR-OV-1, 17%; in the data set on PC-3, 6%; in the data set on A-549, 31%; with MCF7, 9%; in the data set with SW-620 it was 2%. For the same compound, the inhibition at 10 µM in the data set on SF-295 was 38%.

For the compound `COc1ccc(/C=C/C(=O)c2cc(OC)c(OC)c(OC)c2)cc1OCCCCOc1cc(-c2nc3ccccc3s2)ccc1OC` [Compound 10m, (E)-3-(3-{4-[5-(1,3-benzothiazol-2-yl)-2-methoxyphenoxy]butoxy}-4-methoxyphenyl)-1-(3,4,5-trimethoxyphenyl)-2-propen-1-one], the inhibition at 10 µM was 1 to 100% in the data set on human tumor cell lines; 17% in the data set with IGR-OV-1; 0% in the data set with PC-3; 7% in the data set with A-549; 24% in the data set with MCF7; 27% in the data set with SW-620. In addition, the inhibition at 10 µM in the data set with SF-295 stood at 14%.

In the case of `COc1ccc(/C=C/C(=O)c2cc(OC)c(OC)c(OC)c2)cc1OCCCCOc1cccc(-c2nc3ccccc3s2)c1` [Compound 10r, (E)-3-(3-{4-[3-(1,3-benzothiazol-2-yl)phenoxy]butoxy}-4-methoxyphenyl)-1-(3,4,5-trimethoxyphenyl)-2-propen-1-one], the inhibition at 10 µM in the data set with human tumor cell lines was 1 to 100%; in the data set on IGR-OV-1 it was 0%; in the data set on PC-3, 1%; in the data set with A-549, 41%; with MCF7, 14%; in the data set with SW-620, 0%. In addition, the inhibition at 10 µM with SF-295 is 21%.

`COc1cc(-c2nc3ccccc3s2)ccc1OCCCCN1CCN(CCCCOc2cc(/C=C\c3cc(OC)c(OC)c(OC)c3)ccc2OC)CC1` [Compound 15c, 2-[3-methoxy-4-({4-[4-(4-{2-methoxy-5-[(Z)-2-(3,4,5-trimethoxyphenyl)-1-ethenyl]phenoxy}butyl)piperazino]butyl}oxy)phenyl]-1,3-benzothiazole]: the inhibition at 10 µM is 1 to 100% with human tumor cell lines; 95% in the data set with IGR-OV-1; 53% with PC-3; 88% in the data set on A-549; 95% with MCF7; 86% in the data set on SW-620. In the data set on SF-295, the inhibition at 10 µM is 99%. For the same compound, the “cytotoxic activity in words” value in the data set on human tumor cell lines was “increase in activity”.

Consider `COc1ccc(/C=C\c2cc(OC)c(OC)c(OC)c2)cc1OCCCCN1CCN(CCCCOc2ccc(-c3nc4ccccc4s3)cc2)CC1` [Compound 15h, 2-[4-({4-[4-(4-{2-methoxy-5-[(Z)-2-(3,4,5-trimethoxyphenyl)-1-ethenyl]phenoxy}butyl)piperazino]butyl}oxy)phenyl]-1,3-benzothiazole], for which the inhibition at 10 µM was 1 to 100% in the data set with human tumor cell lines; 83% in the data set with IGR-OV-1; 96% in the data set on PC-3; 91% in the data set on A-549; 93% with MCF7; 72% in the data set on SW-620. The inhibition at 10 µM with SF-295 came to 98%. For the same compound, the “cytotoxic activity in words” value with human tumor cell lines is listed as “increase in activity”.

Regarding `COc1ccc(/C=C\c2cc(OC)c(OC)c(OC)c2)cc1OCCCCN1CCN(CCCCOc2cc(-c3nc4ccccc4s3)ccc2OC)CC1` [Compound 15m, 2-[4-methoxy-3-({4-[4-(4-{2-methoxy-5-[(Z)-2-(3,4,5-trimethoxyphenyl)-1-ethenyl]phenoxy}butyl)piperazino]butyl}oxy)phenyl]-1,3-benzothiazole], the inhibition at 10 µM was 1 to 100% with human tumor cell lines; 99% in the data set on IGR-OV-1; 60% in the data set with PC-3; 100% in the data set with A-549; 97% in the data set with MCF7; 99% with SW-620. The inhibition at 10 µM in the data set on SF-295 amounted to 98%. Further, in the data set with human tumor cell lines, the “cytotoxic activity in words” value is reported as “increase in activity”.

On to `COc1ccc(/C=C\c2cc(OC)c(OC)c(OC)c2)cc1OCCCCN1CCN(CCCCOc2cccc(-c3nc4ccccc4s3)c2)CC1` [Compound 15r, 2-[3-({4-[4-(4{-2-methoxy-5-[(Z)-2-(3,4,5-trimethoxyphenyl)-1-ethenyl]phenoxy}butyl)piperazino]butyl}oxy)phenyl]-1,3-benzothiazole], for which the inhibition at 10 µM was 1 to 100% with human tumor cell lines; 92% with IGR-OV-1; 70% with PC-3; 96% with A-549; 88% in the data set with MCF7; 99% with SW-620. Moreover, in the data set with SF-295, the inhibition at 10 µM is 98%. In addition, in the data set on human tumor cell lines, the “cytotoxic activity in words” value is recorded as “increase in activity”.

On to `COc1cc(-c2nc3ccccc3s2)ccc1OCCCCN1CCN(CCCCOc2cc(/C=C/C(=O)c3cc(OC)c(OC)c(OC)c3)ccc2OC)CC1` [Compound 16c, (E)-3-(3{-[4-(4-{4-[4-(1,3-benzothiazol-2-yl)-2-methoxyphenoxy]butyl}piperazino)butyl]oxy}-4-methoxyphenyl)-1-(3,4,5-trimethoxyphenyl)-2-propen-1-one], for which the inhibition at 10 µM in the data set with human tumor cell lines is 1 to 100%; in the data set on IGR-OV-1, 67%; in the data set on PC-3, 24%; with A-549 it was 58%; with MCF7, 69%; with SW-620 it was 0%. Besides, the inhibition at 10 µM in the data set on SF-295 was 24%.

`COc1ccc(/C=C/C(=O)c2cc(OC)c(OC)c(OC)c2)cc1OCCCCN1CCN(CCCCOc2ccc(-c3nc4ccccc4s3)cc2)CC1` [Compound 16h, (E)-3-(3{-[4-(4-{4-[4-(1,3-benzothiazol-2-yl)phenoxy]butyl}piperazino)butyl]oxy}-4-methoxyphenyl)-1-(3,4,5-trimethoxyphenyl)-2-propen-1-one]: the inhibition at 10 µM in the data set with human tumor cell lines was 1 to 100%; with IGR-OV-1, 73%; in the data set on PC-3, 67%; in the data set on A-549, 59%; in the data set on MCF7, 84%; in the data set on SW-620, 0%. In addition, in the data set with SF-295, the inhibition at 10 µM turned out to be 63%.

Take `COc1ccc(/C=C/C(=O)c2cc(OC)c(OC)c(OC)c2)cc1OCCCCN1CCN(CCCCOc2cc(-c3nc4ccccc4s3)ccc2OC)CC1` [Compound 16m, (E)-3-(3{-[4-(4-{4-[5-(1,3-benzothiazol-2-yl)-2-methoxyphenoxy]butyl}piperazino)butyl]oxy}-4-methoxyphenyl)-1-(3,4,5-trimethoxyphenyl)-2-propen-1-one]: the inhibition at 10 µM is 1 to 100% in the data set with human tumor cell lines; 85% in the data set on IGR-OV-1; 2% in the data set on PC-3; 100% in the data set on A-549; 57% in the data set with MCF7; 0% with SW-620. The inhibition at 10 µM in the data set with SF-295 turned out to be 15%.
